This passage reports IC50 results from patent publication US5338726A, “Endothelin converting enzyme inhibitors” (Abbott Laboratories, priority 1992, dated 1994).

pIC50: −log10 of the molar value. Structures can show the parent of a compound that is named as a salt.

The experiment concerns the target solubilized endothelin converting enzyme (P3 from rat lung). As to the kind of experiment: ECE Inhibitor Screening Assay. The note with it: Big ET substrate, 30 minutes at 37° C., HPLC of ET-1 and Big ET, read-out: Inhibition of Endothelin Converting Enzyme IC50. It is filed as biochemical. How it is done: The above mixture without the test compound was used as the control.
Following a 15 minute preincubation at 37° C., benzyl succinate (100 μM), NaOAc, and Big ET (3 μg) were added. The mixture was incubated for 30 minutes at 37° C., followed by addition of pepstatin (40 μM) and 10% TFA to stop the reaction. The mixture was vortexed, centrifuged and the supernatant retained for HPLC determination of Big ET, ET-1 and CTF. […] Percent inhibiton calculations were made with reference to controls based on quantitation of the ET-1 and Big ET peaks at the end of the incubation period.
For the compound `CCOC(=O)CC(O)C(CC(C)C)NC(=O)C(NC(=O)[C@@H](NC(=O)OC(C)(C)C)C(C)(C)C)C(C)CC` (stereo partly drawn) [Example 1, N-{(S)-2-[(tert-Butyloxycarbonyl]amino]-3,3-dimethylbutanoyl}-Isoleucyl-Statyl Ethyl ester], the negative logarithm of the IC50 (pIC50) (as a rule, the IC50 on a negative log10 scale, so that one unit is a factor of ten) is 7.30.

On to `CCC(C)C(NC(=O)OC(C)(C)C)C(=O)NC(C(=O)NC(CC(C)C)C(O)CC(=O)NCCCCO)C(C)CC` (stereo not shown) [Example 6, N-Boc-Isoleucyl-Isoleucyl-Statyl (4-Hydroxybutyl)carboxamide], for which the pIC50 is 7.24.

Regarding `CCC(C)C(NC(=O)OC(C)(C)C)C(=O)NC(C(=O)NC(CC(C)C)C(O)CC(=O)NCCCCCO)C(C)CC` (stereo not shown) [Example 7, N-Boc-Isoleucyl-Isoleucyl-Statyl (5-Hydroxyamyl)carboxamide], the negative logarithm of the IC50 (pIC50) is 7.17.

Turning to `CCC(C)C(NC(=O)OC(C)(C)C)C(=O)NC(C(=O)NC(CC(C)C)C(O)CC(=O)NCCCCCCO)C(C)CC` (stereo not shown) [Example 8, N-Boc-Isoleucyl-Isoleucyl-Statyl (6-Hydroxyhexyl)carboxamide], the pIC50 was 7.41.

Turning to `CCOC(=O)CC(O)C(CC(C)C)NC(=O)C(NC(=O)C(CC1CCCCC1)NC(=O)OC(C)(C)C)C(C)CC` (stereo not shown) [Example 12, N-Boc-Cyclohexylalanyl-Isoleucyl-Statyl Ethyl ester], the negative-log IC50 (pIC50) was 7.72.

In the case of `CCOC(=O)CCNC(=O)CC(O)C(CC(C)C)NC(=O)C(NC(=O)C(NC(=O)OC(C)(C)C)C(C)CC)C(C)CC` (stereo not drawn) [Example 13, N-Boc-Isoleucyl-Isoleucyl-Statyl-β-Alanyl Ethyl ester], the pIC50 is 7.77.

As for `CCC(C)C(NC(=O)OC(C)(C)C)C(=O)NC(C(=O)NC(CC(C)C)C(O)CC(=O)NCC(C)C)C(C)CC` (stereo not shown) [Example 14, N-Boc-Isoleucyl-Isoleucyl-Statyl Isobutylcarboxamide], the pIC50 is 8.10.

Regarding `CCC(C)C(NC(=O)C(CC1CCCCC1)NC(=O)OC(C)(C)C)C(=O)NC(CC(C)C)C(O)CC(=O)O` (stereo not shown) [Example 15, N-Boc-Cyclohexylalanyl-Isoleucyl-Statyl-OH], the pIC50 is 7.33.

Take `CCC(C)C(NC(=O)OC(C)(C)C)C(=O)NC(C(=O)NC(CC(C)C)C(O)CC(=O)NCCC(=O)O)C(C)CC` (stereo not drawn) [Example 16, N-Boc-Isoleucyl-Isoleucyl-Statyl-β-Alanyl-OH]: the negative-log IC50 (pIC50) was 7.52.

On to `CCC(C)C(NC(=O)C(CC1CCCCC1)NC(=O)OC(C)(C)C)C(=O)N[C@@H](Cc1c[nH]c2ccccc12)C(O)CC(=O)NC(C(=O)O)C(C)C` (stereo partly drawn) [Example 23, N-[(4S)-4-(N-Boc-Cyclohexylalanyl-Isoleucyl-Amino)-5-(3-indolyl)-3-hydroxypentanoyl]-Valyl-OH], for which the negative logarithm of the IC50 (pIC50) was 7.62.

For `CC[C@H](C)[C@H](NC(=O)OC(C)(C)C)C(=O)N[C@H](C(=O)N[C@@H](CC1CCCCC1)[C@@H](O)[C@@H](O)CC(C)C)[C@@H](C)CC` [Example 24, (2S,3R,4S)-2-(N-Boc-Isoleucyl-Isoleucyl-Amino)-1-cyclohexyl-3,4-dihydroxy-6-methylheptane], the negative-log IC50 (pIC50) was 8.15.

As to `CC[C@H](C)[C@H](NC(=O)CCC(=O)O)C(=O)N[C@H](C(=O)N[C@@H](CC1CCCCC1)[C@@H](O)[C@@H](O)CC(C)C)[C@@H](C)CC` [Example 25, (2S,3R,4S)-2-(N-Succinyl-Isoleucyl-Isoleucyl-Amino)-1-cyclohexyl-3,4-dihydroxy-6-methylheptane], the negative-log IC50 (pIC50) is 7.77.

As for `CCC(C)C(NC(=O)C(CC(=O)OCc1ccccc1)NC(=O)OC(C)(C)C)C(=O)NC(C(=O)N[C@@H](CC1CCCCC1)[C@@H](O)[C@@H](O)CC(C)C)C(C)CC` (stereo partly drawn) [Example 26, (2S,3R,4S)-2-(N-BOC-Aspartyl(β-O-Benzyl)-Isoleucyl-Isoleucyl -Amino)-1-cyclohexyl-3,4-dihydroxy-6-methylheptane], the pIC50 is 8.15.

Turning to `CC[C@H](C)[C@H](NC(C)=O)C(=O)N[C@H](C(=O)N[C@@H](CC1CCCCC1)[C@@H](O)[C@@H](O)CC(C)C)[C@@H](C)CC` [Example 27, (2S,3R,4S)-2-(N-Acetyl-Isoleucyl-Isoleucyl-Amino)-1-cyclohexyl-3,4-dihydroxy-6-methylheptane], the negative logarithm of the IC50 (pIC50) is 7.54.

Take `CCC(C)C(NC(=O)C(CC1CCCCC1)NC(=O)OC(C)(C)C)C(=O)N[C@@H](CC1CCCCC1)[C@@H](O)[C@@H](O)CC(C)C` (stereo partly shown) [Example 28]: the pIC50 is 8.05.

`CC[C@H](C)[C@H](NC(=O)OCc1ccccc1)C(=O)N[C@H](C(=O)NC(CC(C)C)P(=O)(O)CC(=O)OC(C)(C)C)[C@@H](C)CC` (stereo partly shown) [Example 33, [1-[N-Cbz-Isoleucyl-Isoleucyl-Amino]-3-methylbutyl (hydroxy)phosphinyl]acetic acid tert-Butyl ester]: the pIC50 is 7.48.

As to `CCC(C)C(NC(=O)OC(C)(C)C)C(=O)NC(C(=O)NC(CC(C)C)C(O)CC(=O)NCCC(C)C)C(C)CC` (stereo not shown) [Example 34, N-Boc-Isoleucyl-Isoleucyl-Statyl Isoamylcarboxamide], the negative-log IC50 (pIC50) is 7.72.

`CCC(C)C(NC(=O)OC(C)(C)C)C(=O)NC(C(=O)NC(CC(C)C)C(O)CC(=O)NCC1CCCCC1)C(C)CC` (stereo not shown) [Example 35, N-Boc-Isoleucyl-Isoleucyl-Statyl Cyclohexylmethylcarboxamide]: the pIC50 is 7.77.

On to `CCC(C)C(NC(=O)C(CC1CCCCC1)NC(=O)OC(C)(C)C)C(=O)NC(CC(C)C)C(O)CC(=O)NCC(C)C` (stereo not shown) [Example 39, N-Boc-Cyclohexylalanyl-Isoleucyl-Statyl Isobutylcarboxamide], for which the negative-log IC50 (pIC50) was 8.02.

For the compound `CCC(C)C(NC(=O)C(CC1CCCCC1)NC(=O)OC(C)(C)C)C(=O)NC(CC(C)C)C(O)CC(=O)NCCc1ccccn1` (stereo not shown) [Example 40, N-Boc-Cyclohexylalanyl-Isoleucyl-Statyl N-(2-(2-Pyridyl)ethyl)Carboxamide], the negative logarithm of the IC50 (pIC50) is 8.00.

With `CCC(C)C(NC(=O)C(CC1CCCCC1)NC(=O)OC(C)(C)C)C(=O)NC(CC(C)C)C(O)CC(=O)NCCN(C)C` (stereo not shown) [Example 41, N-Boc-Cyclohexylalanyl-Isoleucyl-Statyl N-(2-N',N'-Dimethylaminoethyl)Carboxamide], the pIC50 is 7.74.

With `CCC(C)C(NC(=O)C(CC1CCCCC1)NC(=O)OC(C)(C)C)C(=O)NC(CC(C)C)C(O)CC(=O)NCCN1CCOCC1` (stereo not shown) [Example 42, N-Boc-Cyclohexylalanyl-Isoleucyl-Statyl N-(2-(Morpholin-4-yl)ethyl)Carboxamide], the negative logarithm of the IC50 (pIC50) is 7.80.

With `CCC(C)C(NC(=O)C(CC1CCCCC1)NC(=O)N1CCN(C)CC1)C(=O)N[C@@H](Cc1ccc2ccccc2c1)[C@@H](O)[C@@H](O)CC(C)C` (stereo partly drawn) [Example 43, (2S,3R,4S)-2-{[IN-(4-Methylpiperazin-1-yl-carbonyl)-Cyclohexylalanyl-Isoleucyl]amino}-1-(2-naphthyl)-3,4-dihydroxy-6-methylheptane Hydrochloride], the pIC50 is 8.22.

As to `CCC(C)C(NC(=O)C(CC(C)(C)C)NC(=O)OC(C)(C)C)C(=O)NC(CC(C)C)C(O)CC(=O)O` (stereo not shown) [Example 45, N-Boc-tert-Butylalanyl-Isoleucyl-Statyl-OH], the negative-log IC50 (pIC50) is 7.29.

`CCC(C)C(NC(=O)C(CC(=O)OCc1ccccc1)NC(=O)OC(C)(C)C)C(=O)NC(C(=O)N[C@@H](Cc1ccc2ccccc2c1)[C@@H](O)[C@@H](O)CC(C)C)C(C)CC` (stereo partly drawn) [Example 46, (2S,3R,4S)-2-{[N-Boc-Aspartyl(β-O-Benzyl)-Isoleucyl-Isoleucyl]amino}-1-(2-naphthyl)-3,4-dihydroxy-6-methylheptane]: the pIC50 was 8.40.

As for `CCC(C)C(NC(=O)OC(C)(C)C)C(=O)NC(C(=O)NC(CC(C)C)C(O)CC(=O)NCCc1ccccn1)C(C)CC` (stereo not shown) [Example 47, N-Boc-Isoleucyl-Isoleucyl-Statyl N-(2-(2-Pyridyl)ethyl)Carboxamide], the negative-log IC50 (pIC50) is 7.70.

Regarding `CCC(C)C(NC(=O)C(CC1CCCCC1)NC(=O)CCC(=O)O)C(=O)N[C@@H](Cc1ccc2ccccc2c1)[C@@H](O)[C@@H](O)CC(C)C` (stereo partly drawn) [Example 48, (2S,3R,4S)-2-{[N-Succinyl-Cyclohexylalanyl-Isoleucyl]amino}-1-(2-naphthyl)-3,4-dihydroxy-6-methylheptane], the pIC50 was 8.15.

As to `CCC(C)C(NC(=O)OC(C)(C)C)C(=O)NC(C(=O)NC(CC(C)C)C(O)CC(=O)N(C)CC(C)C)C(C)CC` (stereo not shown) [Example 52, N-Boc-Isoleucyl-Isoleucyl-Statyl N-Methyl-N-Isobutyl Carboxamide], the pIC50 was 8.00.

Consider `CCC(C)C(NC(=O)C(CC1CCCCC1)NC(=O)N1CCOCC1)C(=O)N[C@@H](Cc1ccc2ccccc2c1)[C@@H](O)[C@@H](O)CC(C)C` (stereo partly drawn) [Example 53, (2S,3R,4S)-2-{[N-(Morpholin-1-yl-carbonyl)-Cyclohexylalanyl-Isoleucyl]amino}-1-(2-naphthyl)-3,4-dihydroxy-6-methylheptane], for which the pIC50 was 8.52.

For `CC[C@H](C)[C@H](NC(=O)[C@H](C)N(C(=O)N(C)CCN(C)C)C1CCCCC1)C(=O)N[C@@H](Cc1ccc2ccccc2c1)[C@@H](O)[C@@H](O)CC(C)C` [Example 54, (2S,3R,4S)-2-{[{N-(N,N-Dimethylaminoethyl)-N-methylamino}carbonyl -Cyclohexylalanyl-Isoleucyl]amino}-1-(2-naphthyl)-3,4-dihydroxy-6-methylheptane], the pIC50 was 8.30.

Take `CC[C@H](C)[C@H](NC(=O)[C@H](C)N(C1CCCCC1)S(=O)(=O)N1CCN(C)CC1)C(=O)N[C@@H](Cc1ccc2ccccc2c1)[C@@H](O)[C@@H](O)CC(C)C` [Example 55, (2S,3R,4S)-2-{[N-(4-Methylpiperazin-1-yl-sulfonyl)-Cyclohexylalanyl-Isoleucyl]amino}-1-(2-naphthyl)-3,4-dihydroxy-6-methylheptane]: the pIC50 is 8.30.
